# Measurements published in ChEMBL document CHEMBL5335847, “Model of P-Glycoprotein Ligand Binding and Validation with Efflux Substrate Matched Pairs” (J Med Chem, 2024).
# Tests used:
# Mu-type opioid receptor = Mu-type opioid receptor (Rattus norvegicus, UniProt P33535); assay: Antagonist activity at mu-opioid receptor in rat thalamus membrane assessed as inhibition of DAMGO-stimulated [35S]GTPgammaS binding incubated for 2 hrs by liquid scintillation spectrophotometry; type: functional, cell membranes
# P-gp (ABCB1) = P-gp (ABCB1) (Homo sapiens, UniProt P08183); assay: Substrate activity at P-gp in human Caco-2 cells assessed as efflux ratio measured for 2 hrs by HPLC analysis; type: ADME, cell-based
# [1] = Apparent permeability of the compound across apical to basolateral side in human Caco-2 cells measured for 2 hrs by HPLC analysis; type: ADME, cell-based
# Chain of Mu-type opioid receptor (P33535 whole entry): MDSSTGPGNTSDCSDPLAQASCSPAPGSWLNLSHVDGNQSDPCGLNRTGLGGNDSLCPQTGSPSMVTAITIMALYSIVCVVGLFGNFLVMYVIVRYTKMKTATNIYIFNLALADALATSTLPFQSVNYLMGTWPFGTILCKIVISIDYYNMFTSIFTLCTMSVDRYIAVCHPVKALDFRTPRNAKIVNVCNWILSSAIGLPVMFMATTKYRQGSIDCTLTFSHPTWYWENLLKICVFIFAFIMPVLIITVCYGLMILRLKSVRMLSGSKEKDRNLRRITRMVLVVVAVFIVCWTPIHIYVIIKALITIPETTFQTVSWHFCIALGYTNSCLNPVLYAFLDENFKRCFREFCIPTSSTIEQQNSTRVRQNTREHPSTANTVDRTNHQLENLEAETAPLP
# Chain of P-gp (ABCB1) (P08183 whole entry): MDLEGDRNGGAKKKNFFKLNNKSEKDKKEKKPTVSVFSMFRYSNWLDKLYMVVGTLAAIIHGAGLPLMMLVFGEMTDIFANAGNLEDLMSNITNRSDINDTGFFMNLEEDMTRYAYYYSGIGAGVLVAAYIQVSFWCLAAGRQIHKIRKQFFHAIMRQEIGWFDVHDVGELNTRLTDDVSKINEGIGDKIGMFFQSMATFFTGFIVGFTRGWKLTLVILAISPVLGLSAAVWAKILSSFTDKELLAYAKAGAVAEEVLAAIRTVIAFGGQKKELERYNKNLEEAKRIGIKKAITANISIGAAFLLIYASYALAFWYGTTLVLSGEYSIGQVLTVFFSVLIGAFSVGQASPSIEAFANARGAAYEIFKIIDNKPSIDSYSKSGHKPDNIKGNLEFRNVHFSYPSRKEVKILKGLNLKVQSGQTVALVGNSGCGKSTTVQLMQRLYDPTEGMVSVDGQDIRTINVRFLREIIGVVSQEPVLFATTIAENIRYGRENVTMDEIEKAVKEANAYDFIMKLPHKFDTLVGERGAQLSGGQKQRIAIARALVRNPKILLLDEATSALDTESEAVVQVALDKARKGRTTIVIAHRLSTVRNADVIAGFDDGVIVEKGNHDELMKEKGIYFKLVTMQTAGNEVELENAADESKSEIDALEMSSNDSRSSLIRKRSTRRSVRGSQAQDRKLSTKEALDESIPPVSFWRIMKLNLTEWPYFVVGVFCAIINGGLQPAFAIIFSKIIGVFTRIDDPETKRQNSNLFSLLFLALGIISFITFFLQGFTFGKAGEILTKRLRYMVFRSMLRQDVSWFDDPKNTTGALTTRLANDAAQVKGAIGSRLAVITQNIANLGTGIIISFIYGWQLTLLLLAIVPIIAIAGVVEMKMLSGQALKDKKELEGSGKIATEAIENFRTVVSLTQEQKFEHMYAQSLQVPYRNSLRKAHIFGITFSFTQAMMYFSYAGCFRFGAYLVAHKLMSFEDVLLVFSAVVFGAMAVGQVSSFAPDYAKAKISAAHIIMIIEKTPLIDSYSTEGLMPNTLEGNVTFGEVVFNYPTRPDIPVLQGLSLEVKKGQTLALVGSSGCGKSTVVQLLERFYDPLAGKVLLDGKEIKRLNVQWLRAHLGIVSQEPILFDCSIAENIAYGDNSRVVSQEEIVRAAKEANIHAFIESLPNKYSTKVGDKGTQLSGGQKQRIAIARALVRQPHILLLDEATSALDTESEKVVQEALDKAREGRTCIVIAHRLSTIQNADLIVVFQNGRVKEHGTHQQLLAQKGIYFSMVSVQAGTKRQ
Compound,Ki (Mu-type opioid receptor),efflux ratio at 2 h (P-gp (ABCB1)),Papp A→B at 2 h [1]
O=C(N[C@@H]1CC[C@@]2(O)[C@H]3Cc4ccc(O)c5c4[C@@]2(CCN3CC2CC2)[C@H]1O5)c1cc2ccccc2cn1,3.5 nM,1.3,3 ×10⁻⁶ cm/s
O=C(N[C@@H]1CC[C@@]2(O)[C@H]3Cc4ccc(O)c5c4[C@@]2(CCN3CC2CC2)[C@H]1O5)c1ccncc1,4.8 nM,> 10,< 0.7 ×10⁻⁶ cm/s
